Where two headings read alike, the source gives them in different places.
Experiments:
HEK 293 cells = test: MTT cell viability, HEK 293; assay type: cell-based; details: Homo sapiens, HEK293; HEK-293, MTT test
Experimental: (§1) The effect of the hydroxamic acids on the viability of cells obtained from human embryonic kidneys, HEK 293, as well as the native form of human neuroblastoma, SH-SY5Y, was evaluated in the MTT test. Using a multifunctional flatbed analyzer, Cytation™3 (BioTek Instruments, Inc., Winooski, VT, USA), the optical density was determined at a wavelength of 530 nm. Based on the dose-dependent curves, the concentration values leading to 50% inhibition of cell population growth (IC50) were calculated.
(§2) Due to the fact that most compounds of the class of hydroxamic acids have high cytotoxic activity and are mainly used as anticancer drugs, their use as neuroprotective drugs is limited. Since the goal of our work was to search for agents for the pharmacological correction of neurodegenerative diseases, a necessary part of the biological activity study of the synthesized hydroxamic acids was to determine their effect on the survival of cell cultures. In our work, we used neuron-like neuroblastoma cells SH-SY5Y and a healthy cell line isolated from the human embryonic kidney, HEK 293.

[1] = tested on: lipid peroxidation (LPO) of rat brain homogenate; test: Lipid peroxidation (LPO) of rat brain homogenate, TBARS test; assay type: biochemical; details: substances at 100 μM, mean ± SEM; for % of Activity, Inhibition of LPO, Fe (II): Fe (II)-induced; for % of Activity, Inhibition of LPO, t-BHP: t-BHP-induced
Experimental: To obtain the brain homogenate, rats preliminarily anesthetized with CO2 were decapitated with a guillotine. The brain was homogenized in a buffer containing KCl (120 mM) and HEPES (20 mM), pH = 7.4 at 4 °C, and centrifuged at 1500 rpm to obtain a supernatant. The protein was quantified according to the standard microbiuret method.
To investigate the effect of the compounds on lipid peroxidation (LPO) of rat brain homogenate, we used the modified version of the TBARS test, which is based on the reaction of 2-thiobarbituric acid with the end LPO product—malonic dialdehyde (MDA). The plate well, according to the experimental scheme, contained the compounds under study (100 μM), rat brain homogenate (2 mg/mL), as well as ferrous iron ions ([…]) at a concentration of 500 μM and 1.6 mM tert-butyl hydroxyperoxide as an initiator. After 30 min of incubation at 37 °C, TBARS reagent was added to all samples, incubated for 90 min at 90 °C, and centrifuged at 6000 rpm for 15 min. The optical density of the selected supernatant was measured on a Victor 3 plate reader (Perkin Elmer) at λ = 540 nm.
A rat brain homogenate preparation containing fragments of cell membranes was used as a model system to investigate the antioxidant activity of the hydroxamic acids. To initiate the process of lipid peroxidation, ferrous ions were used to trigger the Fenton reaction, during which the iron valence changes and a highly reactive hydroxyl radical is formed, and tert-butyl hydroxyperoxide as a direct source of free radicals.

β-amyloid 1–42 = tested on: T1, β-amyloid 1–42; test: β-amyloid 1–42 aggregation, Thioflavin T fluorescence; assay type: biochemical; details: 100 μM, 72 h incubation
T1 construct: fragments Aβ1–40 and Aβ1–42
Experimental: (§3) The effect of the studied compounds on the aggregation of β-amyloid (1–40/1–42) was analyzed using the method of recording Thioflavin T fluorescence (10 µM) for 72 h at 37 °C. The fluorescence signal was measured using a multifunctional flatbed analyzer, the Cytation ™ 3 (BioTek Instruments, Inc., Winooski, VT, USA), at λex = 450 nm, λem = 480 nm.
(§4) The effect of hydroxamic acids on the stage of aggregation of the pathological β-amyloid peptide was investigated for 72 h using two model systems—fragments Aβ1–40 and Aβ1–42. The fluorophore Thioflavin T was used as an indicator of the ongoing fibrillation process, the interaction of which with proteins in the state of amyloid fibrils leads to an increase in the fluorescence signal.

[2] = DPPH test of antiradical activity; details: substances at 100 μM, mean ± SEM
Experimental: The DPPH test was used to examine antiradical activity based on the ability of a stable chromogen radical of 2,2-diphenyl-1-picrylhydrazyl (DPPH) to remove a hydrogen atom, which is accompanied by a change in the absorption maximum in the electronic absorption spectra. The amount of reduced DPPH was measured using a Cytation ™ 3 multifunctional plate analyzer (BioTek Instruments, Inc., Winooski, VT, USA) at a wavelength of 517 nm.
The antiradical activity of the test compounds was evaluated by the DPPH test, based on the ability of antioxidants to donate an electron to the stable chromogen radical DPPH, converting it into a nonradical form and neutralizing its activity. […] The chromogenic free radical DPPH used in this test has a large size, and substances even with a similar chemical structure may have different antiradical properties due to spatially difficult access.

HDAC6 = target: T2, HDAC6 (Homo sapiens, UniProt Q9UBN7); test: HDAC6 enzyme activity, FLUOR DE LYS fluorometric kit; assay type: biochemical
T2 construct: purchased Enzo Life Sciences (Enzo Biochem, New York, NY, USA)
T2 sequence (Q9UBN7 1-1215): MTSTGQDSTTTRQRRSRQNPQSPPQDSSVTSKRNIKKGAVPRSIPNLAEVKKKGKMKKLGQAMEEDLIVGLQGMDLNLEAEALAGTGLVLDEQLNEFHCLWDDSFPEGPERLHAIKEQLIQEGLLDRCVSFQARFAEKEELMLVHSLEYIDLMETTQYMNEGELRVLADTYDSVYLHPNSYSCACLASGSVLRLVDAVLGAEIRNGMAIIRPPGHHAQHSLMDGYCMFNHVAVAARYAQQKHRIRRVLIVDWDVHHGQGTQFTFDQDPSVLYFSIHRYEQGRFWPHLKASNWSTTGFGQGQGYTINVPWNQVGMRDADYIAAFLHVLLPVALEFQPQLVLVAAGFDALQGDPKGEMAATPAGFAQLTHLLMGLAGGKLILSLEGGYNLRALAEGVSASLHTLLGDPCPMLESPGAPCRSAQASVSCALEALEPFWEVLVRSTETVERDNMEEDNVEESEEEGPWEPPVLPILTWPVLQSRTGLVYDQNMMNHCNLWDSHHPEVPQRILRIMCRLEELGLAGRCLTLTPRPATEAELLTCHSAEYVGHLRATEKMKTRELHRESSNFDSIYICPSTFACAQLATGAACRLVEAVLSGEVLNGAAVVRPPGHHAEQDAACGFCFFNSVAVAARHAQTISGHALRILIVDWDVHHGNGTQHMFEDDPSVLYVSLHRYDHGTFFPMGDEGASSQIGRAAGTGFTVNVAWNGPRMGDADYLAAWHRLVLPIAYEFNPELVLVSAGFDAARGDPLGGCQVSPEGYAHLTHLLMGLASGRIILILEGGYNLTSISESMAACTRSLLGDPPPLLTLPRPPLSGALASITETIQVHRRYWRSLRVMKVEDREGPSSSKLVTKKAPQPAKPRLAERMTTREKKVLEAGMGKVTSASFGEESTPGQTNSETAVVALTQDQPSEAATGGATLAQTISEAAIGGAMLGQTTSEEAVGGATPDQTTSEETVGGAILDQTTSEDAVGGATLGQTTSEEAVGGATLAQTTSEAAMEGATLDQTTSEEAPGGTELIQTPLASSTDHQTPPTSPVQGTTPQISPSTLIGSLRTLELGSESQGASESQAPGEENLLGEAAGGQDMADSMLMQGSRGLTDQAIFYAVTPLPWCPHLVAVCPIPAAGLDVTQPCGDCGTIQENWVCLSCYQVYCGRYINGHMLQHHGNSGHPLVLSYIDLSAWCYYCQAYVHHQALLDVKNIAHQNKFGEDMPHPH

SH-SY5Y cells = test: MTT cell viability, SH-SY5Y; assay type: cell-based; details: Homo sapiens, MTT test
Experimental: as §1, §2

β-amyloid 1–40 = β-amyloid 1–40 aggregation, Thioflavin T fluorescence; assay type: biochemical; details: 100 μM, 72 h incubation
Experimental: as §3, §4

[3] = mean ± SEM, read-out: IC50 HDAC6 Inhibitory Activity

Row | Compound | IC50 (HEK 293 cells) | melting point | % of Activity, Inhibition of LPO, Fe (II) [1] | % of Activity, Inhibition of LPO, t-BHP [1] | Effect on β-amyloid 1–42 aggregation (β-amyloid 1–42) | % of Activity, Antiradical Activity [2] | IC50 (HDAC6; [3]) | IC50 (SH-SY5Y cells) | Effect on β-amyloid 1–40 aggregation (β-amyloid 1–40) | IC50 (HDAC6; Table S2, used for correlation with pKi, read-out: pIC50 (from experimental HDAC6 IC50) (converted))
1 | O=C(CCCCCCCC(=O)NC1C2CC3CC(C2)CC1C3)NO (stereo not drawn) [compound 16, N^1-(Adamantan-2-yl)-N^9-Hydroxynonanediamide] | 49.5 ± 3.43 µM | 133.2 °C | 26.41 ± 2.58% | 16.27 ± 0.42% | noticeable fibrillation inhibition | - (The ‘-’ mark indicates the lack of activity of the test substances (≤10%) in a particular test) | 0.74 ± 0.01 µM | > 100 µM | noticeable fibrillation inhibition | 
2 | CC1(C)C(NC(=O)/C=C/c2ccc(C(=O)NO)cc2)[C@@]2(C)CC[C@H]1C2 (stereo partly drawn) [compound 24, N-Hydroxy-4-((E)-3-Oxo-3-(((1S,4S)-1,3,3-Trimethylbicyclo[2.2.1]heptan-2-yl)amino)prop-1-en-1-yl)benzamide] | 60.2 ± 1 µM |  | 34.16 ± 1.37% | 20.63 ± 3.92% | noticeable fibrillation inhibition | 20.32 ± 0.41% | ≤ 6.5 µM | 52 ± 2.61 µM | noticeable fibrillation inhibition | 15.3 µM
3 | CC1(C)[C@@H]2CCC1(C)[C@H](NC(=O)/C=C/c1ccc(C(=O)NO)cc1)C2 [compound 23, N-Hydroxy-4-((E)-3-Oxo-3-(((2R,4R)-1,7,7-Trimethylbicyclo[2.2.1]heptan-2-yl)amino)prop-1-en-1-yl)benzamide] | 68.3 ± 2.22 µM | 202.5 °C | 32.91 ± 1.12% | 18.26 ± 4.90% | noticeable fibrillation inhibition | 20.14 ± 1.28% | 18 ± 1.02 µM | 64.2 ± 4.1 µM | noticeable fibrillation inhibition | 

Reference: PMC8623418, “Novel Multitarget Hydroxamic Acids with a Natural Origin CAP Group against Alzheimer’s Disease: Synthesis, Docking and Biological Evaluation” (Pharmaceutics, 2021)
